Where two headings read alike, the source gives them in different places.
Columns and labels:
in vivo [1] = settings: for concentration at 7 days / Synovial Fluid drug concentration: dog, in vivo
Text: Baseline synovial fluid was collected from untreated canine subjects. […] Synovial fluid was collected from stifle or shoulder joints.
Error bars depicted standard error of the mean.

[2] = for Serum drug concentration: dog, in vivo
Text: (§1) 12 dogs with radiographic evidence of osteoarthritis (OA) were utilized to compare the concentration of ibuprofen in both blood and synovial fluid following transdermal delivery of ibuprofen formulated in base formulation and oral delivery in capsules. The 12 dogs were randomly divided into two groups of six subjects; one group received the oral positive treatment control and the other group received the transdermal treatment. The treatment cycle consisted of six days twice daily followed by a period of seven days devoid of treatment. Blood and synovial fluid samples (from both stifles and shoulders) were collected on the last (sixth) day of drug application and on the last (seventh) day of the washout period.
(§2) Test article: 1.5% (w/w) ibuprofen in base formulation (4); ˜1 g gel per shoulder joint twice daily (i.e. 15 mg ibuprofen per shoulder joint twice daily). Control article: base formulation; ˜1 g gel per shoulder joint twice daily. Positive Control: 30 mg ibuprofen in capsule PO twice daily.
(§3) Whole blood and synovial fluid samples were collected from the dogs 60 mins post treatment on the 7th day, and additional samples were collected after a 7 day washout. Baseline synovial fluid was collected from untreated canine subjects. Synovial fluid was collected under sedation (medetomidine (0.01 mg/kg) and butorphenol (0.1 mg/kg) IV). The fluid was collected by arthrocentesis into the joint following surgical preparation of the area. Synovial fluid was collected from stifle or shoulder joints.

in vivo [3] = settings: dog
Text: as §1, §2, §3

[4] = system: aged Beagle dogs with radiographic evidence of osteoarthritis; experiment: Modified canine brief pain inventory questionnaire in aged dogs with osteoarthritis; assay type: in vivo; settings: test day 5; for cumulative pain score compared to baseline: about 1.5 hours after administration
Experimental: This study used a blinded parallel group design with a total of eighteen (18) aged Beagle dogs greater than six years of age with radiographic evidence of osteoarthritis. The dogs were randomized to three groups of six subjects balanced on baseline pain levels determined using a modified canine brief pain inventory questionnaire in which a technician evaluated levels of pain and functional impairment in a standardized obstacle test over two baseline days. […] Dogs were tested on the modified canine brief pain inventory questionnaire daily over 7 days approximately 1.5 hours following administration of their respective treatments. Over the subsequent five test days, the same treatment doses were administered twice daily (i.e., doubling the daily dose), except that a loading dose was administered in the morning of the first day, which consisted of twice the daily dose level used initially (i.e., triple initial dose on the first day). The technicians assessing pain and function with the questionnaire were blinded to treatment conditions. Twice daily observations were conducted for the duration of the study.
Transdermal and oral naproxen were evaluated compared to a negative control as described in the Study Design. […] Questionnaire testing occurred approximately 1.5 hours following the morning dose administration of the test compounds. The two most affected joints of each subject were shaved prior to the first day of drug administration in all treatment groups.
Subjects were assessed on a pain questionnaire once daily on test days. […] Specifically, the ability of each dog to walk, trot, gallop, rear, jump over a low obstacle, climb and descend stairs, jump down from a perch and general activity was evaluated in addition to a subjective evaluation of pain during evaluation of each function. […]
The data consisted of whole number scored for 13 questions assessing measures of both pain (0-2) and functional impairment (0-4), as well as an overall pain and function question (0-4). A cumulative pain and functional impairment score was calculated from all […] for both the pain and functional impairment measures on a daily basis as applicable. […] Subsequently, difference from the baseline scores were calculated for the fifth test day at each dose and subjected to a similar RMANOVA analysis. […]
The dogs were randomized to three groups of six subjects based on mean baseline pain levels determined using a modified canine brief pain inventory questionnaire over two baseline days. […] Pain was evaluated using the pain questionnaire, which was administered approximately 1.5 hours following administration of their respective treatments. […] Data from the fifth treatment day at each dose compared to baseline was statistically evaluated.

[5] = Naproxen quantification in canine sera (LC-MS/MS); assay type: in vivo, Beagle dogs; settings: both sexes, Beagle, dog, serum, oral, mean+/−SEM
Experimental: A 1 mg/mL stock solution of d3-naproxen was prepared in dimethyl sulfoxide. […] A solution of 200 ng/mL of d3-naproxen was prepared by adding 4 μL of 50 μg/mL solution of d3-naproxen to 996 μL methanol/water (70:30) (stock solution B).
Isocratic chromatographic separation was performed on a Zorbax Eclipse XDB-C18 column (150×4.6 mm I.D., 5 μm particle size, Agilent, Santa Clara, Calif., USA, SN USKH095544) with a XDB-C18 guard column (12.5×4.6 mm I.D., μm particle size, Agilent, Santa Clara, Calif., USA, SN USLE034730) using a mobile phase of acetonitrile/0.02 M NH4OAc (pH=4.00) (70:30) at a flow rate of 0.500 mL/min for 6 min. […] There was a post time of 0.10 min. The column temperature was 40° C. and the autosampler temperature was maintained at 4° C. The sample injection volume was 10 μL. A 4000 Q trap from AB Sciex Instruments equipped with an electrospray ionization (ES1) was used in the negative ion mode with multiple reaction monitoring (MRM) for the quantitative analysis. Nitrogen was used as the collision gas and the curtain gas. […] Analytical data were acquired and quantification processing was performed by using Analyst software.
Six aged Beagle dogs (>6 years) of both sexes with quantified radiographic evidence of osteoarthritis were used for the study. […]

[6] = Dose 2 (high dose, twice daily)

Row | concentration at 7 days (in vivo [1]) [ng/mL] | Synovial Fluid drug concentration (in vivo [1]; 60 min) | Synovial Fluid drug concentration (in vivo [1]; 7 days) | concentration at 7 days (in vivo [1]; po) [ng/mL] | Synovial Fluid drug concentration (in vivo [1]; po, 60 min) | Synovial Fluid drug concentration (in vivo [1]; po, 7 days) | reduction of drug by a one week washout period (in vivo [1]; synovial fluid, oral or transdermal) [%] | Serum drug concentration ([2]; 60 min) | Serum drug concentration ([2]; 7 days) | Serum drug concentration ([2]; po, 60 min) | Serum drug concentration ([2]; po, 7 days) | reduction of circulating drug by a one week washout period ([2]; serum, oral or transdermal) [%] | concentration at 7 days (in vivo [3]) [ng/mL] | concentration at 7 days (in vivo [3]; po) [ng/mL] | concentration at 60 min ([5]; capsule PO once daily for seven days, 60 minutes post administration) [ng/mL] | concentration at 7 days ([5]; seven day washout) [ng/mL] | SMILES | cumulative pain score difference from mean baseline compared to negative control ([4]; Dose 1 (low dose, once daily)) | cumulative pain score compared to baseline ([4]; Dose 1 (low dose, once daily)) | cumulative pain score difference from mean baseline compared to negative control [4, 6] | cumulative pain score compared to baseline [4, 6]
1 | 58.5 | 1,711 (±828) ng/mL | 31 (±21)^□ ng/mL | 8.5 | 2,065 (±1,070) ng/mL | 5 (±3)^□ ng/mL | > 95 | 2,904 (±1,212) ng/mL | 59 (±38)^□ ng/mL | 15,420 (±3,450) ng/mL | 9 (±4)^□ ng/mL | > 95 | 58.5 | 8.5 | – | – | CC(C)Cc1ccc(C(C)C(=O)O)cc1 (centres unmarked) [Ibuprofen] | – | – | – | –
2 | – | – | – | – | – | – | – | – | – | – | – | – | – | – | 102000 | 16200 | COc1ccc2cc([C@H](C)C(=O)O)ccc2c1 [oral naproxen, Naproxen] | reduced pain at only the low dose | significant decrease from baseline | reduced pain at only the low dose | reduced measures of pain at only the low dose

Source: patent US20190046481A1, “TRANSDERMAL FORMULATIONS FOR DELIVERY OF PROPIONIC AND ACETIC ACID NSAIDS, AND THEIR USE IN THE TREATMENT OF NSAID-RESPONSIVE DISEASES AND CONDITIONS” (DELIVRA INC., priority 2015, published 2019)
